Read-outs that look alike come from different tables or passages of the source.
Columns and labels:
rat α2B = target: T1, rat α2B (Rattus norvegicus, UniProt P19328); experiment: Receptor binding, [3H]rauwolscine, CHO-RNG cells expressing rat α2B
T1 construct: expressed in transfected cells; host or cells: CHO cells (CHO-RNG)
T1 sequence (P19328 1-453): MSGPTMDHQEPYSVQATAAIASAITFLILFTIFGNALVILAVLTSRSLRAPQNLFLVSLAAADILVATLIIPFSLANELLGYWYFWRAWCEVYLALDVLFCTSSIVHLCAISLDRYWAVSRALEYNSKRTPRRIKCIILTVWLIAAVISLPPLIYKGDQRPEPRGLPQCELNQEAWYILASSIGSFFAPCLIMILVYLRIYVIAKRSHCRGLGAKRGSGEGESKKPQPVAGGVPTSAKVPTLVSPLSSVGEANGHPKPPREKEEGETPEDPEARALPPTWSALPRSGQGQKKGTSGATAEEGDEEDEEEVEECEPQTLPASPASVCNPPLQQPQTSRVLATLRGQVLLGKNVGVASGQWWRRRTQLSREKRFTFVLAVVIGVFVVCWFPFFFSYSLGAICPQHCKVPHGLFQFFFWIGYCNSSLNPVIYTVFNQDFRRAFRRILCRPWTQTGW
Method: (§1) Cell preparation: Chinese hamster ovary (CHO) cells expressing the human α2A and human α2C (CHO-C10 and CHO-C4 respectively) receptors and CHO cells (CHO-RNG) expressing the rat α2B, adrenoceptor were grown to near confluence in Dulbecco's modified Eagle's medium supplemented with 10% fetal bovine serum using standard cell culture methods. Cells were harvested by scraping and placed into cold buffer of the following composition: 50 mM Tris-HCl, 5 mM EDTA, pH 7.4). […] The pellet fraction was washed (resuspended in Tris-HCl, pH 8 buffer and centrifuged for 15-20 minutes at 49,000× g) 2 times and stored at -100° until binding assay.
(§2) Binding Studies: The radioligands [^3 H]rauwolscine (specific activity 80 Ci/mmol) and [^3 H]prazosin (specific activity 76 Ci/mmol) were obtained from New England Nuclear, Boston, Mass. Frozen membrane pellet was resuspended in 25 mM glycine/glycine, pH 7.5 and incubated with radioligand under the following conditions: CHO-C10, CHO-RNG, CHO-C4-[^3 H]rauwolscine, 22° C., 30 minutes; RKC-[^3 H]rauwolscine, 0° C., 120 minutes; and, HCC-[^3 H]prazosin, 22° C., 30 minutes in a final volume of 500 ul. At the end of the incubation period, the samples were filtered through glass filters (Whatman GF/B) in a 96 well cell harvester and rapidly washed four times with 4 mL of iced-cold 50 mM Tris-HCl buffer. The filters were then oven dried and transferred to scintillation vials containing 10 mL of Beckman's Ready Protein® scintillation cocktail for counting. […] Protein concentrations were determined with a protein assay kit from Bio Rad. Binding isotherms, equilibrium dissociation and affinity constants were analyzed and determined by the non-linear least squares curve fitting programs EBDA (BioSoft) or AccuFit Competition/Saturation by Beckman.
Cell Preparation: Chinese hamster ovary (CHO) cells expressing the human α2A (CHO-C10) and the rate α2B (CHO-RNG) […] were grown to near confluence in Dulbecco's modified Eagle's medium supplemented with 10% fetal bovine serum using standard cell culture methods. Cells were harvested by scraping and placed into cold buffer of the following composition: 50 mM Tris-HCl, 5 mM EDTA, pH 7.4). […] The pellet fraction was washed (resuspended in Tris-HCl, pH 8 buffer and centrifuged for 15-20 minutes at 49,000× g) 2 times and stored at […] until binding assay.
(§3) The radioligands [^3 H] rauwolscine (specific activity 80 Ci/mmol) and [^3 H] prazosin (specific activity 76 Ci/mmol) were obtained from New England Nuclear, Boston, Mass. Frozen membrane pellet was resuspended in 25 mM glycine/glycine, pH 7.4 and incubated with radioligand under the following conditions: CHO-C10, CHO-RNG, CHO-C4-[^3 H]rauwolscine, 22° C., 30 min.; and, HCC-[^3 H]prazowsin, 22° C., 30 minutes in a final volume of 500 ul. At the end of the incubation period, the samples were filtered through glass fiber filters (Whatman GF/B) in a 96 well cell harvester and rapidly washed four times which 4 mL of iced-cold 50 mM Tris-CHI buffer. The filters were then oven dried and transferred to scintillation vials containing 5 mL of Beckman's Ready Protein® scintillation cocktail for counting. […] Protein concentrations were determined with a protein assay kit from Bio lad. Binding isotherms, equilibrium dissociation and affinity constants were analyzed and determined by the non-linear least squares curve fitting programs AccuFit Competition/Saturation by Beckman.
(§4) Representative compounds of the present invention were tested according to the procedures given above. […] The receptor binding studies and K1 are measures of the affinity of a compound for a particular receptor.

human α2C = target: T2, human α2C (Homo sapiens, UniProt P18825); experiment: Receptor binding, [3H]rauwolscine, CHO-C4 cells expressing human α2C; conditions: CHO-C4, 22° C., 30 min
T2 construct: expressed in transfected cells; host or cells: CHO cells (CHO-C4)
T2 sequence (P18825 1-462): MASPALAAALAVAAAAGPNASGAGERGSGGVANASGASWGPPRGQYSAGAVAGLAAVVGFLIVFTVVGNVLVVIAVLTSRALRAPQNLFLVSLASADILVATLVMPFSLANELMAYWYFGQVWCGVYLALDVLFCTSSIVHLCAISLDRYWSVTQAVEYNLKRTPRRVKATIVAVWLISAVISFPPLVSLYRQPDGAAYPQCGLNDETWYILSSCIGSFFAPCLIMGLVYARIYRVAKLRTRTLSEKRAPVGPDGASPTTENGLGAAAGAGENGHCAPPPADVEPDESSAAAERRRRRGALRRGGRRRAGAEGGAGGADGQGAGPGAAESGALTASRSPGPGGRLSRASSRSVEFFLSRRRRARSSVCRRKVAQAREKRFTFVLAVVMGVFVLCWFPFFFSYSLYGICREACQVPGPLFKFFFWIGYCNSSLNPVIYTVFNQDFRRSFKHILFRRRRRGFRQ
Method: as §1, §2, §3, §4

[1] = rabbit
[2] = [3H]rauwolscine, CHO-RNG, 22° C., 30 min, read-out: Ki α2B

Row | SMILES | Ki (human α2C) [nM] | Ki (rat α2B; [2]) [nM] | Ki (rat α2B) [nM] | IOP of the untreated eye (systemic effect) ([1]; in vivo) | lowering of intraocular pressure (IOP), treated eye ([1]; single drop of 0.001%, topical, one eye)
1 | Cc1ccccc1NC1=NCCN1 [Example 1] | 70 | – | 49 | – | –
2 | Nc1cc(Cl)c(NC2=NCCN2)c(Cl)c1 [Example 3] | 21 | 4.8 | – | – | –
3 | c1cc2c(cc1NC1=NCCN1)OCCO2 [Example 11] | – | – | 28 | – | –
4 | COc1ccc(NC2=NCCN2)c(C)c1OC [Example 12] | 93 | 196 | – | – | –
5 | Cc1c(NC2=NCCN2)ccc2c1OCCO2 [Example 13] | 3.5 | – | 4 | – | –
6 | Cc1cccc(Nc2ncc[nH]2)c1C [Example 18] | 180 | 295 | – | – | –
7 | Cc1c(O)cccc1Nc1ncc[nH]1 [Example 20] | 457 | 895 | – | – | –
8 | COc1c(C(C)(C)C)cc(C)c(Nc2ncc[nH]2)c1C [Example 22] | 88 | 221 | – | – | –

Further lines, with some results ahead:

Row | Ki (human α2C) [nM] | Ki (rat α2B; [2]) [nM] | SMILES | Ki (rat α2B) [nM] | IOP of the untreated eye (systemic effect) ([1]; in vivo) | lowering of intraocular pressure (IOP), treated eye ([1]; single drop of 0.001%, topical, one eye)
9 | 463 | 262 | c1cc2c(cc1NC1=NCCN1)NCCN2 [Example 7] | – | – | –
10 | 124 | 139 | Cc1c(NC2=NCCN2)ccc2c1NCCN2 [Example 8] | – | – | –
11 | 120 | 47 | Brc1c(NC2=NCCN2)ccc2c1NCCN2 [Example 9] | – | – | –
12 | 293 | 194 | CC1CNc2c(ccc(NC3=NCCN3)c2Br)N1 (stereo not drawn) [Example 10] | – | – | –
13 | – | 842 | O=C1COc2ccc(NC3=NCCN3)cc2N1 [Example 14] | – | – | –
14 | 134 | 241 | Cc1c(NC2=NCCN2)ccc2c1NC(=O)CO2 [Example 15] | – | – | –
15 | 8.9 | 30 | Cc1c(NC2=NCCN2)ccc2c1NCCO2 [Example 16] | – | without lowering IOP in the untreated eye | greater effect in lowering IOP than clonidine
